In patent publication US10577378B2, “EIF4A-inhibiting compounds and methods related thereto” (eFFECTOR Therapeutics, Inc., priority 2015, dated 2020):
Where a name gives a salt, the structure may show the parent alone.

Tested on: MDA-MB-231 human breast cancer cells
Assay: Cell proliferation assay (CellTiter-Glo, 72 hours treatment)
Assay type: cell-based
Conditions: Homo sapiens, MDA-MB-231, 72 h, read-out: MDA-MB-231 cell proliferation assay (IC50)
Outline: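 MDA-MB-231 cells seeded at 2,500 cells/well, treated next day with compound or DMSO vehicle for 72 h at 37 °C. Proliferation read by CellTiter-Glo; IC50 from sigmoidal non-linear regression, binned as +++ (<100 nM), ++ (100–1000 nM), + (>1000 nM).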

For `COc1cncc2c1[C@]1(O)[C@@H](CN)C[C@@H](c3ccccc3)[C@]1(c1ccc(Br)cc1)O2` (racemic) [172F, Rac-(4bR,5R,7S,7aR)-5-(aminomethyl)-7a-(4-bromophenyl)-4-methoxy-7-phenyl-5,6,7,7a-tetrahydro-4bH-cyclopenta[4,5]furo[2,3-c]pyridin-4b-ol], the IC50 was less than 100 nM.

Same assay, conditions: Homo sapiens; MDA-MB-231 cells, 72 hours at 37° C., CellTiter-Glo; read-out: MDA-MB-231 cell proliferation assay (IC50)

`COc1cncc2c1[C@]1(O)[C@@H](CN3CCOCC3)[C@H](CO)[C@@H](c3ccccc3)[C@]1(c1ccc(Br)cc1)O2` (racemic) [179F, Rac-(4bR,5R,6R,7S,7aR)-7a-(4-bromophenyl)-6-(hydroxymethyl)-4-methoxy-5-(morpho-linomethyl)-7-phenyl-5,6,7,7a-tetrahydro-4bH-cyclopenta[4,5]furo[2,3-c]pyridin-4b-ol] and `COc1nc(Cl)cc2c1[C@]1(O)[C@@H](CN3CCOCC3)[C@H](CO)[C@@H](c3ccccc3)[C@]1(c1ccc(Br)cc1)O2` (racemic) [199F, Rac-(5aR,6S,7R,8R,8aR)-5a-(4-bromophenyl)-3-chloro-7-(hydroxymethyl)-1-methoxy-8-(morpholinomethyl)-6-phenyl-5a,6,7,8-tetrahydro-8aH-cyclopenta[4,5]furo[3,2-c]pyridin-8a-ol] cannot be ordered by IC50: less than 100 nM for the first, less than 100 nM for the second.

First: COc1cncc2c1[C@]1(O)[C@H](O)[C@H](CN3CCC3)[C@@H](c3ccccc3)[C@]1(c1ccc(C#N)cc1)O2 (racemic) [71F, Rac-4-((4bS,5R,6S,7S,7aR)-6-(azetidin-1-ylmethyl)-4b,5-dihydroxy-4-methoxy-7-phenyl-4b,5,6,7-tetrahydro-7aH-cyclopenta[4,5]furo[2,3-c]pyridin-7a-yl)benzonitrile]
Second: COc1cncc2c1[C@]1(O)[C@H](O)[C@H](CNC(C)(C)C)[C@@H](c3ccccc3)[C@]1(c1ccc(C#N)cc1)O2 (single isomer, unassigned) [290F]
The IC50 of the first is lower: less than 100 nM for the first, 100 to 1000 nM for the second.

`C#CC1(O)C(C(=O)N(C)C)[C@@H](c2ccccc2)[C@]2(c3ccc(Br)cc3)Oc3cc(Cl)cnc3[C@]12O` (mixture of isomers) [190F, rac-(5aR,6S,8aS)-5a-(4-bromophenyl)-3-chloro-8-ethynyl-8,8a-dihydroxy-N,N-dimethyl-6-phenyl-5a,7,8,8a-tetrahydro-6H-cyclopenta[4,5]furo[3,2-b]pyridine-7-carboxamide] and `O[C@@H]1C[C@@H](c2ccccc2)[C@]2(c3ccc(Br)cc3)Oc3cc(Cl)cnc3[C@]12O` (racemic) [127F, Rac-(5aR,6S,8R,8aS)-5a-(4-bromophenyl)-3-chloro-6-phenyl-5a,6,7,8-tetrahydro-8aH-cyclopenta[4,5]furo[3,2-b]pyridine-8,8a-diol] fall in the same range of IC50: 100 to 1000 nM for the first, 100 to 1000 nM for the second.

`COc1nc(Cl)cc2c1[C@]1(O)[C@H](O)[C@H](CN3CCCC3)[C@@H](c3ccccc3)[C@]1(c1ccc(C#N)cc1)O2` (racemic) [158Fb, Rac-4-((5aR,6S,7S,8R,8aS)-3-chloro-8,8a-dihydroxy-1-methoxy-6-phenyl-7-(pyrrolidin-1-ylmethyl)-6,7,8,8a-tetrahydro-5aH-cyclopenta[4,5]furo[3,2-c]pyridin-5a-yl)benzonitrile] and `COc1nc(C#N)cc2c1[C@]1(O)[C@H](O)[C@H](CN3CCCC3)[C@@H](c3ccccc3)[C@]1(c1ccc(Br)cc1)O2` (racemic) [158Fa, Rac-(5aR,6S,7S,8R,8aS)-5a-(4-bromophenyl)-8,8a-dihydroxy-1-methoxy-6-phenyl-7-(pyrrolidin-1-ylmethyl)-5a,7,8,8a-tetrahydro-6H-cyclopenta[4,5]furo[3,2-c]pyridine-3-carbonitrile] cannot be ordered by IC50: less than 100 nM for the first, less than 100 nM for the second.

`COCCNC[C@H]1[C@@H](O)[C@@]2(O)c3c(OC)cncc3O[C@@]2(c2ccc(C#N)cc2)[C@@H]1c1ccccc1` [263F, 4-((4bS,5R,6S,7S,7aR)-4b,5-dihydroxy-4-methoxy-6-(((2-methoxyethyl)amino)methyl)-7-phenyl-4b,5,6,7-tetrahydro-7aH-cyclopenta[4,5]furo[2,3-c]pyridin-7a-yl)benzonitrile hydrochloride] and `CCN(CC)C[C@H]1[C@@H](O)[C@@]2(O)c3c(OC)cncc3O[C@@]2(c2ccc(C#N)cc2)[C@@H]1c1ccccc1` (single isomer, unassigned) [73F] cannot be ordered by IC50: less than 100 nM for the first, less than 100 nM for the second.

`COc1nccc2c1[C@]1(O)[C@H](O)[C@H](CN(C)C)[C@@H](c3ccccc3)[C@]1(c1ccc(C#N)cc1)O2` (racemic) [141F, Rac-4-((5aR,6S,7S,8R,8aS)-7-((dimethylamino)methyl)-8,8a-dihydroxy-1-methoxy-6-phenyl-6,7,8,8a-tetrahydro-5aH-cyclopenta[4,5]furo[3,2-c]pyridin-5a-yl)benzonitrile] and `COc1nc(C#N)cc2c1[C@]1(O)[C@H](O)[C@H](CN3CCC(F)(F)CC3)[C@@H](c3ccccc3)[C@]1(c1ccc(C#N)cc1)O2` (racemic) [157Fc, Rac-(5aR,6S,7S,8R,8aS)-5a-(4-cyanophenyl)-7-((4,4-difluoropiperidin-1-yl)methyl)-8,8a-dihydroxy-1-methoxy-6-phenyl-5a,7,8,8a-tetrahydro-6H-cyclopenta[4,5]furo[3,2-c]pyridine-3-carbonitrile] fall in the same range of IC50: 100 to 1000 nM for the first, 100 to 1000 nM for the second.

`O=C1N[C@H]2[C@@H](O1)[C@@]1(O)c3ncc(Cl)cc3O[C@@]1(c1ccc(Br)cc1)[C@@H]2c1ccccc1` (racemic) [53F, Rac-(3aR,3bS,8aR,9R,9aR)-8a-(4-bromophenyl)-6-chloro-3b-hydroxy-9-phenyl-1,3a,3b,8a,9,9a-hexahydro-2H-oxazolo[4″,5″:4′,5′]cyclopenta[1′,2′:4,5]furo[3,2-b]pyridin-2-one] and `N#Cc1ccc([C@@]23Oc4cc(Cl)cnc4[C@]2(O)[C@@H](CN)C[C@H]3c2ccccc2)cc1` (racemic) [175F, Rac-4-((5aR,6S,8R,8aR)-8-(aminomethyl)-3-chloro-8a-hydroxy-6-phenyl-6,7,8,8a-tetrahydro-5aH-cyclopenta[4,5]furo[3,2-b]pyridin-5a-yl)benzonitrile] cannot be ordered by IC50: less than 100 nM for the first, less than 100 nM for the second.

Compared with `CN(C)C(=O)[C@@]12C[C@@H]1[C@@]1(O)c3ncc(Cl)cc3O[C@@]1(c1ccc(C#N)cc1)[C@@H]2c1ccccc1` (racemic) [31F, Rac-(5aR,6R,6aS,7aS,7bR)-3-chloro-5a-(4-cyanophenyl)-7b-hydroxy-N,N-dimethyl-6-phenyl-5a,7,7a,7b-tetrahydrocyclopropa[4′,5′]cyclopenta[1′,2′:4,5]furo[3,2-b]pyridine-6a(6H)-carboxamide], `COc1cncc2c1[C@]1(O)[C@@H](CNC3COC3)[C@H](CO)[C@@H](c3ccccc3)[C@]1(c1ccc(C#N)cc1)O2` (racemic) [186F, Rac-4-((4bR,5R,6R,7S,7aR)-4b-hydroxy-6-(hydroxymethyl)-4-methoxy-5-((oxetan-3-ylamino)-methyl)-7-phenyl-4b,5,6,7-tetrahydro-7aH-cyclopenta[4,5]furo[2,3-c]pyridin-7a-yl)-benzonitrile] is lower in IC50: greater than 1000 nM for the first, less than 100 nM for the second.

`COc1cncc2c1[C@]1(O)[C@H](O)[C@H](C(=O)N(C)Cc3cccnc3)[C@@H](c3ccccc3)[C@]1(c1ccc(Br)cc1)O2` (racemic) [277F, Rac-(4bS,5R,6R,7S,7aR)-7a-(4-bromophenyl)-4b,5-dihydroxy-4-methoxy-N-methyl-7-phenyl-N-(pyridin-3-ylmethyl)-4b,6,7,7a-tetrahydro-5H-cyclopenta[4,5]furo[2,3-c]pyridine-6-carboxamide] and `COc1cncc2c1[C@]1(O)[C@H](O)[C@H](C(=O)N(C)C3COC3)[C@@H](c3ccccc3)[C@]1(c1ccc(Br)cc1)O2` (racemic) [237F, Rac-(4bS,5R,6R,7S,7aR)-7a-(4-bromophenyl)-4b,5-dihydroxy-4-methoxy-N-methyl-N-(oxetan-3-yl)-7-phenyl-4b,6,7,7a-tetrahydro-5H-cyclopenta[4,5]furo[2,3-c]pyridine-6-carboxamide] cannot be ordered by IC50: less than 100 nM for the first, less than 100 nM for the second.

`COc1nc(C#N)cc2c1[C@]1(O)[C@@H](CN3CCOCC3)[C@H](CO)[C@@H](c3ccccc3)[C@]1(c1ccc(C#N)cc1)O2` (racemic) [200F, Rac-(5aR,6S,7R,8R,8aR)-5a-(4-cyanophenyl)-8a-hydroxy-7-(hydroxymethyl)-1-methoxy-8-(morpholinomethyl)-6-phenyl-5a,7,8,8a-tetrahydro-6H-cyclopenta[4,5]furo[3,2-c]pyridine-3-carbonitrile] and `COc1nc(C#N)cc2c1[C@]1(O)[C@H](O)[C@H](CN3CCC(F)CC3)[C@@H](c3ccccc3)[C@]1(c1ccc(Br)cc1)O2` (racemic) [156Fa, Rac-(5aR,6S,7S,8R,8aS)-5a-(4-bromophenyl)-7-((4-fluoropiperidin-1-yl)methyl)-8,8a-dihydroxy-1-methoxy-6-phenyl-5a,7,8,8a-tetrahydro-6H-cyclopenta[4,5]furo[3,2-c]pyridine-3-carbonitrile] cannot be ordered by IC50: less than 100 nM for the first, less than 100 nM for the second.

`COc1nc(Cl)cc2c1[C@]1(O)[C@H](O)[C@H](C(=O)N(C)C)[C@@H](c3ccccc3)[C@]1(c1ccc(Br)cc1)O2` (racemic) [137F, Rac-(5aR,6S,7R,8R,8aS)-5a-(4-bromophenyl)-3-chloro-8,8a-dihydroxy-1-methoxy-N,N-dimethyl-6-phenyl-5a,7,8,8a-tetrahydro-6H-cyclopenta[4,5]furo[3,2-c]pyridine-7-carboxamide] and `COc1nc(Cl)cc2c1[C@]1(O)[C@H](O)[C@H](C(=O)N3CCC34CC4(F)F)[C@@H](c3ccccc3)[C@]1(c1ccc(Br)cc1)O2` (mixture of isomers) [219F, Rac-((5aR,6S,7R,8R,8aS)-5a-(4-bromophenyl)-3-chloro-8,8a-dihydroxy-1-methoxy-6-phenyl-5a,7,8,8a-tetrahydro-6H-cyclopenta[4,5]furo[3,2-c]pyridin-7-yl)(1,1-difluoro-4-azaspiro[2.3]hexan-4-yl)methanone] cannot be ordered by IC50: less than 100 nM for the first, less than 100 nM for the second.

In the case of `COc1cncc2c1[C@]1(O)[C@H](O)[C@H](S(=O)(=O)c3ccccn3)[C@@H](c3ccccc3)[C@]1(c1ccc(C#N)cc1)O2` (racemic) [119F, Rac-4-((4bS,5S,6R,7S,7aR)-4b,5-dihydroxy-4-methoxy-7-phenyl-6-(pyridin-2-ylsulfonyl)-4b,5,6,7-tetrahydro-7aH-cyclopenta[4,5]furo[2,3-c]pyridin-7a-yl)benzonitrile], the IC50 is reported as 100 to 1000 nM.
